Entries after “also recorded” stand apart in the source; their conditions may differ. Marks after values point to notes of the source that are not given here. Where a SMILES comes first, the peptide text is derived from it. Bridges are numbered along the chain shown (N, C = ends). Triazole bridges read from a SMILES are 1,4-linked. [ ]: non-standard residue; d: D form. The star is where a group is joined. Benzoyl(4-guanidino) = N=C(N)Nc1ccc(C(=O)*)cc1; Aha = [N-]=[N+]=NCC[C@H](N)C(=O)O; β3hV = CC(C)[C@H](N)CC(=O)O; Nle = CCCC[C@H](N)C(=O)O; Pra = C#CC[C@H](N)C(=O)O
Key:
[1] = tested on: high-fat diet-induced obese C57BL/6 mice; assay: Diet-induced obesity model: blood biochemistry; format: in vivo, mouse; settings: for Insulin / Total Cholesterol / Triglyceride: High-Fat Diet mice
Description: Male C57BL/6 mice at 4 weeks of age were provided by BioLasco Taiwan (under Charles River Laboratories Licensee). All animals were maintained in an environment with well-controlled temperature (20–24 °C) and humidity (30–70%) with 12 h light/dark cycles. Free access to standard lab diet (MFG (Oriental Yeast Co., Ltd., Japan)) and autoclaved tap water was granted. All aspects of this work including housing, experimentation, and animal disposal were performed in general accordance with the “Guide for the Care and Use of Laboratory Animals: Eighth Edition” (National Academies Press, Washington, D.C., 2011) in our laboratory animal facility accredited by the […]. In addition, the protocol for animal care and use was reviewed and approved by the Institutional Animal Care and Use Committee (IACUC) at Pharmacology Discovery Services Taiwan, Ltd.
ALT (Alanine aminotransferase) and AST (Aspartate aminotransferase) assay kit (Denka Seiken, Japan), Cholesterol assay kit (Denka, Japan), Creatinine assay kit (Denka Seiken, Japan), Mouse insulin ELISA kit (Crystal chem, Elk Grove Village, IL, USA), Na^+/K^+ assay kit (Toshiba, Japan), Triglyceride assay kit (Sentinel Diagnostics, Milano, Italy) and Water for injection (Tai-Yu, Taiwan).
The protocol was performed for all groups and all animals. Male C57BL/6 mice were fed a high-fat diet (HFD) (60% of calories) or a standard chow diet (STD) from 4 weeks of age. Thirty (30) mice were fed the HFD and 10 mice were fed the STD (for 8 weeks before treatment) for a total of 20 weeks. The mice assigned to the STD diet were maintained on this diet throughout the study as a reference group of lean control mice. From Week 9, HFD-fed mice were grouped by body weight before dosing. Body weight was recorded three times weekly from Week 9. Food/water intake was recorded twice weekly from Week 9. Blood chemistry analyzes were performed in Weeks 8 (before dosing, Day 56), 16 (Day 113) and 20 (Day 141), including serum insulin, total cholesterol (T-CHO), triglyceride (TG), alanine aminotransferase (ALT), aspartate aminotransferase (AST), uric acid (UA), creatinine, potassium (K^+) and sodium (Na^+). At the termination in Week 20 (Day 141), the adipose tissue weight, including epididymal, mesenteric, inguinal, retroperitoneal, and brown fat, was measured after the animals were sacrificed. Two-way ANOVA followed by Bonferroni’s tests were applied to ascertain the difference between vehicle control and treated animals. Significance was set at p < 0.05 level. The following parameters were measured: (1) body weight three times weekly; (2) food/water intake twice weekly; (3) blood chemistry in Weeks 8 (before dosing), 16 and 20 including glucose, insulin, serum lipids (triglycerides (TG), total cholesterol (TC), AST, alanine aminotransferase (ALT), uric acid, creatinine, potassium and sodium through 16-h fasting animals; and finally, (4) total body fat (including visceral and subcutaneous fat) in Week 20.

[2] = tested on: high-fat diet-induced obese C57BL/6 mice; settings: mouse, in vivo
Description: Male C57BL/6 mice at 4 weeks of age were provided by BioLasco Taiwan (under Charles River Laboratories Licensee). All animals were maintained in an environment with well-controlled temperature (20–24 °C) and humidity (30–70%) with 12 h light/dark cycles. Free access to standard lab diet (MFG (Oriental Yeast Co., Ltd., Japan)) and autoclaved tap water was granted. […]
The protocol was performed for all groups and all animals. […] Body weight was recorded three times weekly from Week 9. Food/water intake was recorded twice weekly from Week 9. […] At the termination in Week 20 (Day 141), the adipose tissue weight, including epididymal, mesenteric, inguinal, retroperitoneal, and brown fat, was measured after the animals were sacrificed. […] The following parameters were measured: (1) body weight three times weekly; (2) food/water intake twice weekly; (3) blood chemistry in Weeks 8 (before dosing), 16 and 20 including glucose, insulin, serum lipids (triglycerides (TG), total cholesterol (TC), AST, alanine aminotransferase (ALT), uric acid, creatinine, potassium and sodium through 16-h fasting animals; and finally, (4) total body fat (including visceral and subcutaneous fat) in Week 20.

[3] = 5 and 10 mg/kg i.p. once daily for 12 weeks, day 113 and day 141
[4] = 5 or 10 mg/kg i.p. daily, HFD mice
[5] = 5 or 10 mg/kg i.p. daily, Day 113 and Day 141
[6] = 5 mg/kg QD x 12 weeks IP, Day 56 (before dosing), mean
[7] = 5 mg/kg QD x 12 weeks IP, Day 113, mean
[8] = 5 mg/kg QD x 12 weeks IP, Day 141, mean
[9] = 10 mg/kg QD x 12 weeks IP, Day 56 (before dosing), mean
[10] = 10 mg/kg QD x 12 weeks IP, Day 113, mean
[11] = 10 mg/kg QD x 12 weeks IP, Day 141, mean

Q: Which insulin level ([1]; 10 mg/kg daily, 12 weeks, vs vehicle treated/normal diet) does the source give for `CCCC[C@@H]1NC(=O)[C@@H](NC(=O)c2ccc(NC(=N)N)cc2)CCn2cc(nn2)C[C@@H](C(=O)N[C@@H](Cc2c[nH]c3ccccc23)C(=O)O)NC(=O)[C@@H]2CCCN2C(=O)[C@H](CCCNC(=N)N)NC(=O)C[C@H](C(C)C)NC(=O)[C@H](CCCNC(=N)N)NC(=O)[C@H](CC(C)C)NC1=O` [GPS18169] ({Benzoyl(4-guanidino)}-[Aha][Nle]LR[β3hV]RP[Pra]W-OH; triazole 1-8) here?
A: Its insulin level is “back to the control”.

Q: And the “serum alanine aminotransferase (ALT) level vs vehicle” value [1, 3]?
A: Its value is “not associated with any significant effect”.

Q: And the “serum aspartate aminotransferase (AST) level vs vehicle” value [1, 3]?
A: Its value is “not associated with any significant effect”.

Q: What about the total cholesterol level [1, 4] of the same compound?
A: Its total cholesterol level is “remained high, despite a modest reduction; also recorded: improvement”.

Q: What about the triglycerides level [1, 4] of the same compound?
A: The triglycerides level was “remained high, despite a modest reduction; also recorded: improvement”.

Q: And the insulin level ([1]; 5 or 10 mg/kg i.p. daily, after 12 weeks of treatment, HFD mice)?
A: The insulin level was “normalization; also recorded: significant reduction; also recorded: improvement; also recorded: return to almost normal”.

Q: And the “serum creatinine level vs vehicle” value [1, 5]?
A: Its value is “did not lead to any significant effect”.

Q: And the “serum potassium (K+) level vs vehicle” value [1, 5]?
A: The value was “did not lead to any significant effect”.

Q: And the “serum sodium (Na+) level vs vehicle” value [1, 5]?
A: Its value is “did not lead to any significant effect”.

Q: What about the “serum uric acid (UA) level vs vehicle” value ([1]; 5 or 10 mg/kg i.p. daily, Week 16 (Day 113) and Week 20 (Day 141)) of the same compound?
A: The value was “did not lead to any significant effect”.

Q: What about the Insulin [1, 6] of the same compound?
A: Its Insulin is 909.5 pg/mL.

Q: What about the “Total Cholesterol” value [1, 6] of the same compound?
A: Its value is 158.3 mg/dL.

Q: And the Triglyceride [1, 6]?
A: Its Triglyceride is 121.8 mg/dL.

Q: What about the Insulin [1, 7] of the same compound?
A: Its Insulin is 1983.8 pg/mL.

Q: What about the “Total Cholesterol” value [1, 7] of the same compound?
A: Its value is 143.1 mg/dL.

Q: And the Triglyceride [1, 7]?
A: The Triglyceride was 115.3 mg/dL.

Q: And the “Total Cholesterol” value [1, 8]?
A: Its value is 135.6 mg/dL.

Q: And the Triglyceride [1, 8]?
A: Its Triglyceride is 108.9 mg/dL.

Q: What about the Insulin [1, 9] of the same compound?
A: Its Insulin is 1068.0 pg/mL.

Q: What about the “Total Cholesterol” value [1, 9] of the same compound?
A: Its value is 155.6 mg/dL.

Q: And the Triglyceride [1, 9]?
A: Its Triglyceride is 122.9 mg/dL.

Q: What about the Insulin [1, 10] of the same compound?
A: Its Insulin is 1549.7 pg/mL.

Q: And the “Total Cholesterol” value [1, 10]?
A: Its value is 135.7 mg/dL.

Q: What about the Triglyceride [1, 10] of the same compound?
A: The Triglyceride was 108.3 mg/dL.

Q: And the Insulin [1, 11]?
A: The Insulin was 957.0 * pg/mL.

Q: And the “Total Cholesterol” value [1, 11]?
A: Its value is 132.1 mg/dL.

Q: What about the Triglyceride [1, 11] of the same compound?
A: The Triglyceride was 102.1 mg/dL.

Q: What about the “overt toxicities and behavioral modifications” value [2] of the same compound?
A: The value was “Neither overt toxicities nor behavioral modifications were observed”.

From article PMC7957705 (Molecules, 2021)
